Legend:
PPARγ = target: T1, PPARγ (Homo sapiens, UniProt P37231); experiment: PPARγ beta-lactamase reporter assay; assay type: cell-based; conditions: concentrations 0.5-10,000 nM; read-out: PPARγ activation EC50
T1 sequence (P37231 1-505): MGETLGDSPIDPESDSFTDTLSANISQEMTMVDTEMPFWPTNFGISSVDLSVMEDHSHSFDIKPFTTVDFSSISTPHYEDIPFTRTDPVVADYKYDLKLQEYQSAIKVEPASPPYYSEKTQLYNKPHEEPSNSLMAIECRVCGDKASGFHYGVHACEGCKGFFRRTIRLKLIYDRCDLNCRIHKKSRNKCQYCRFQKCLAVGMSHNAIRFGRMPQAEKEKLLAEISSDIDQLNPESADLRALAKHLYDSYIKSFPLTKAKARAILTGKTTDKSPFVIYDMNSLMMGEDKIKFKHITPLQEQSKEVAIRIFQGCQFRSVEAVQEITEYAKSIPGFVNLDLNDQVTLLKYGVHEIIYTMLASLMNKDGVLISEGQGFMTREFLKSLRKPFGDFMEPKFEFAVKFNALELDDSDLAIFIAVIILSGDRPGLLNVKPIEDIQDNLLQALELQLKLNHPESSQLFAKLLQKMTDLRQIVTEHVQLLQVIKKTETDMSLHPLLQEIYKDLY
Protocol: FIG. 11a-11e illustrates modulation of anti-oxidant and inflammatory responses by 17-oxoDHA and 17-oxoDPA. RAW264.7 cells were treated with increasing concentration of 17-oxoDHA and 17-oxoDPA. (a) Cells were harvested 1 h after treatment and Nrf2 levels were quantified in nuclear extracts. (b) Cells were harvested 18 h after treatment and HO-1 and Nqo1 (upper band) levels were measured by western blot. (c, d) RAW264.7 cells were treated with increasing concentration of 17-oxoDHA and 17-oxoDPA for 6 h and Kdo2+IFNγ were added. Samples were collected at 12 h. IL-6, MCP-1 and IL-10 levels were measured in the cell media by Quantikine ELISA Kit (R&D Systems) and normalized by the total protein content (c); Nitrite levels were measured in the cell media and normalized by the total protein content and iNOS and Cox-2 levels were measured in total cell lysates (d); (e) PPARγ beta-lactamase reporter assays were performed for Rosiglitazone, 17-OxoDPA, 17-OxoDHA, 15d-PGJ2, 17-hydroxyDHA, DPA, and DHA with concentrations ranging from 0.5-10,000 nM.
The observation that oxo-fatty acids, such as 15d-PGJ2^30, 5-oxoEPA, 6-oxoOTE, and the synthetic 4-oxoDHA^31, covalently bind and activate the peroxisome proliferator-activated receptor γ (PPARγ), prompted the present inventors to test the ability of 17-oxoDPA, and 17-oxoDHA to activate PPARγ. […]

[1] = system: EFAD formation in RAW264.7 cells; experiment: Inhibitor study: EFAD formation in RAW264.7 cells activated with Kdo2 and IFNγ; assay type: cell-based, murine
[2] = system: bone marrow-derived macrophage (BMDM) cells; experiment: EFAD formation in activated bone marrow-derived macrophages ± ASA; assay type: cell-based, C57BL/6 murine; conditions: activated with Kdo2 and IFNγ, treated with ASA
RAW264.7 cells = experiment: GS-EFAD adducts in activated RAW264.7 cells; assay type: cell-based, murine; conditions: activated RAW264.7 cells + ASA
Ovine placental COX-2 = target: T2, Ovine placental COX-2 (Ovis aries, UniProt P79208); experiment: In vitro COX-2 reaction with DPA ± ASA; assay type: biochemical; conditions: purified ovine COX-2 + DPA 10 μM, 2 mM ASA
T2 construct: Ovine placental COX-2 (Cayman 60120) was also from Cayman Chemicals; purchased Cayman Chemicals 60120; host or cells: ovine placenta (tissue-derived, from the word 'placental')
T2 sequence (P79208 17-603): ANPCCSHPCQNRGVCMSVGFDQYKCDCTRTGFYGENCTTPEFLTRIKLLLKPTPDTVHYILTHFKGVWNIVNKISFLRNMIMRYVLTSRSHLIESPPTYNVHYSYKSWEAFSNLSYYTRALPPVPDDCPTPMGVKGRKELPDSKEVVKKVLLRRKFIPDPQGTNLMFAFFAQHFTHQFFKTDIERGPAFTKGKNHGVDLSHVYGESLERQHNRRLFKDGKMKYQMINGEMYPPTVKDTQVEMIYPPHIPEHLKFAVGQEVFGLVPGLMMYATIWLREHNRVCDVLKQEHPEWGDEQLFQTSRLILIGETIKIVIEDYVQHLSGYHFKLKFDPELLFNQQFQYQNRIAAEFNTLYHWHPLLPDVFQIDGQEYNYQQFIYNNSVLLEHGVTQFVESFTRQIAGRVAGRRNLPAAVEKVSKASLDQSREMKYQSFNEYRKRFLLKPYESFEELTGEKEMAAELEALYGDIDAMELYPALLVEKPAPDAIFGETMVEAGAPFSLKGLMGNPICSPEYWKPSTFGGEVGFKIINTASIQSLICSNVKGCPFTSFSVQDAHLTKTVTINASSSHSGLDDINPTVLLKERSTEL

[3] = RAW264.7 + Kdo2 + IFNγ, 20 h, ↓ decrease, ↑ increase, NE (not defined in patent)

SMILES	EC50 (PPARγ) [nM]	Increase of EFAD formation ([1]; ASA 200 μM, all EFADs except EFAD-4 and EFAD-6)	Effect of inhibitor on EFAD-1 formation [1, 3]	Effect of inhibitor on EFAD-2 formation [1, 3]	Effect of inhibitor on EFAD-3 formation [1, 3]	Effect of inhibitor on EFAD-4 formation [1, 3]	Effect of inhibitor on EFAD-5 formation [1, 3]	Effect of inhibitor on EFAD-6 formation [1, 3]	Extent of EFAD formation in BMDM [2]	Formation of GS-adducts (RAW264.7 cells)	Formation of OH-DPA by COX-2 (Ovine placental COX-2)
CCCCCC=CC=C1C(=O)C=C[C@@H]1CC=CCCCC(=O)O [15d-PGJ2, 15-deoxy-Δ (12,14)-prostaglandin J2]	~25	–	–	–	–	–	–	–	–	–	–
CC(=O)Oc1ccccc1C(=O)O [ASA, acetyl salicylic acid]	–	about 2.5 fold	↑	↑	↑	↓	↑	↓	increased about two to three fold	enhanced the formation of GS-adducts	increased the rate and extent of formation

Source: US11723897B2, “Fatty acids as anti-inflammatory agents” (University of Pittsburgh—Of the Commonwealth System of …, priority 2009, dated 2023)
